Results taken from the NIST ThermoML archive (doi:10.1016/j.tca.2016.05.007).
Numbers after ± are expanded uncertainties.

With `COc1ccc(C2(c3ccc(OC)c(C)c3)OC(=O)c3ccccc32)cc1C` [3,3-bis(4-methoxy-3-methylphenyl)-1(3H)-isobenzofuranone] as the compound, how does the Normal melting temperature (Crystal, DTA) read?
Its Normal melting temperature is 110.1 ± 0.4 °C.

What about the Glass transition temperature (Glass, Adiabatic calorimetry) of the same compound?
Its Glass transition temperature is 41.2 ± 0.1 °C.
